Active and inactive are the calls of the source. The calls are words filed in the database; no cut-off is given here.

This is an account of results in ChEMBL document CHEMBL6114965, “Novel dual-targeting PROTAC degraders of GSK-3β and CDK5: A promising approach for pancreatic cancer treatment” (Bioorg Med Chem, 2025).

Series [1] has as its target T1, Protein cereblon/Glycogen synthase kinase-3 beta (Homo sapiens, UniProt P49841+Q96SW2). Briefly: PROTAC activity at CRBN/GSK3beta in human PANC-1 cells assessed as induction of GSK3beta degradation by target engagement binding based cell-ELISA. On the technique in general: ELISA stands for enzyme-linked immunosorbent assay.
Target sequence in this assay (P49841 whole entry): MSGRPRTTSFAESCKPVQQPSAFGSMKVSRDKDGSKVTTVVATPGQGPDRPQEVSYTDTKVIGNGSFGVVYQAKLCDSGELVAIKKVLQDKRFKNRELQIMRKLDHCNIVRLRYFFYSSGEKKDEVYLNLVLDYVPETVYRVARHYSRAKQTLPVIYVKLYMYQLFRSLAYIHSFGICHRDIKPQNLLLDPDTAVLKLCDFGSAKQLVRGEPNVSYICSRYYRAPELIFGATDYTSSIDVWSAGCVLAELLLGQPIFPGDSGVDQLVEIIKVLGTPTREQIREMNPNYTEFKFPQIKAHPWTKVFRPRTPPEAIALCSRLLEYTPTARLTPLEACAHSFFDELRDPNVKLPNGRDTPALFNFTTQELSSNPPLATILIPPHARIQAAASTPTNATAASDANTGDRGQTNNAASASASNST
Target sequence in this assay (Q96SW2 whole entry): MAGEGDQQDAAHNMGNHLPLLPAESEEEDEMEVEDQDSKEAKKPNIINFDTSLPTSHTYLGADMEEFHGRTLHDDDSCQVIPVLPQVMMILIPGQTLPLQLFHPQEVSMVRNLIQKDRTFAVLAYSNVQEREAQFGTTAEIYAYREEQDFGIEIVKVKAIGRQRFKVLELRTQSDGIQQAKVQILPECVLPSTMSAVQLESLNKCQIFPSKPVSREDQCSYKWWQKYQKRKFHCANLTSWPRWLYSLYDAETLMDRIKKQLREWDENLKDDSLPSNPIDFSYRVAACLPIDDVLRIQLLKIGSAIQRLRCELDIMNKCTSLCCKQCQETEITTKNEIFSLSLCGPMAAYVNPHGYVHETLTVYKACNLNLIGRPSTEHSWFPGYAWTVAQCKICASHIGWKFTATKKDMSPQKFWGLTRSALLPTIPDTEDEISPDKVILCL
Series [2] deals with T1, Protein cereblon/Glycogen synthase kinase-3 beta. Briefly: PROTAC activity at CRBN/GSK3beta in human PANC-1 cells assessed as induction of GSK3beta degradation at 0.5 to 2.8 uM incubated for 10 hrs in presence of MG132 by Western blot analysis. The note with it: dose 0.5-2.8 µM. The class given is cell-based. Background: A western blot detects proteins with antibodies after separation by electrophoresis.
Target sequence in this assay (P49841 whole entry, looked up): as the sequence (P49841 whole entry) above
Target sequence in this assay (Q96SW2 whole entry, looked up): as the sequence (Q96SW2 whole entry) above

Series [3] has as its target T2, Protein cereblon/Cyclin-dependent kinase 5 (Homo sapiens, UniProt Q00535+Q96SW2). The series is described as follows: PROTAC activity at CRBN/CDK5 in human PANC-1 cells assessed as induction of CDK5 degradation at 0.5 to 2.8 uM incubated for 10 hrs in presence of MG132 by Western blot analysis. To be noted: dose 0.5-2.8 µM. The class given is cell-based.
Target sequence in this assay (Q00535 whole entry, looked up): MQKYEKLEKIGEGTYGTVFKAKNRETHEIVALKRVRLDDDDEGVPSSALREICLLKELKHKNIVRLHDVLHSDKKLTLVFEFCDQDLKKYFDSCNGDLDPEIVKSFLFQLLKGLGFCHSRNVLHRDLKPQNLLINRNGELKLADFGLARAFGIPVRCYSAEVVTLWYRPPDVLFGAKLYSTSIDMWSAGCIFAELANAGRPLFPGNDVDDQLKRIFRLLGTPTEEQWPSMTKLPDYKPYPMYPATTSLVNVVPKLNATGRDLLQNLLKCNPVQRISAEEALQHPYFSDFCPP
Target sequence in this assay (Q96SW2 whole entry, looked up): as the sequence (Q96SW2 whole entry) above
Series [4] concerns ASPC1. The series is described as follows: Antiproliferative activity against human ASPC1 cells assessed as inhibition of cell viability by MTT assay. The class given is functional, cell-based. On the technique in general: Formazan colour is commonly taken as a measure of viable cells.
Series [5] concerns the target T2, Protein cereblon/Cyclin-dependent kinase 5. Briefly: PROTAC activity at CRBN/CDK5 in human PANC-1 cells assessed as induction of CDK5 degradation by measuring maximal efficacy by target engagement binding based cell-ELISA relative to control.
Target sequence in this assay (Q00535 whole entry, looked up): as the sequence (Q00535 whole entry, looked up) above
Target sequence in this assay (Q96SW2 whole entry, looked up): as the sequence (Q96SW2 whole entry) above
In series [6] the target is T1, Protein cereblon/Glycogen synthase kinase-3 beta. The series is described as follows: PROTAC activity at CRBN/GSK3beta in human PANC-1 cells assessed as induction of GSK3beta degradation by measuring maximal efficacy by target engagement binding based cell-ELISA relative to control.
Target sequence in this assay (P49841 whole entry, looked up): as the sequence (P49841 whole entry) above
Target sequence in this assay (Q96SW2 whole entry, looked up): as the sequence (Q96SW2 whole entry) above
The test system of series [7] is MIA PaCa-2. The series is described as follows: Antiproliferative activity against human MIA PaCa-2 cells assessed as inhibition of cell viability by MTT assay. The class given is functional, cell-based.
Series [8] concerns BXPC-3. Briefly: Antiproliferative activity against human BXPC-3 cells assessed as inhibition of cell viability by MTT assay. It is filed as functional, cell-based.
Series [9] addresses T2, Protein cereblon/Cyclin-dependent kinase 5. Briefly: PROTAC activity at CRBN/CDK5 in human PANC-1 cells assessed as induction of CDK5 degradation by target engagement binding based cell-ELISA.
Target sequence in this assay (Q00535 whole entry): as the sequence (Q00535 whole entry, looked up) above
Target sequence in this assay (Q96SW2 whole entry): as the sequence (Q96SW2 whole entry) above
In series [10] the test system is PANC-1. Briefly: Antiproliferative activity against human PANC-1 cells assessed as inhibition of cell viability by MTT assay. It is filed as functional, cell-based.
Series [11] can be described thus: Permeability of compound in PBS at pH 7.4 at 500 uM incubated for 4 hrs by UV spectrophotometry based PAMPA. The class given is ADME. To be noted: read-out: permeability.

For `O=C1CCC(N2C(=O)c3cccc(NCCOCCOCCOCCOCCOCn4cc(CN5CCN(CCCn6cc(C7=C(c8c[nH]c9ccccc89)C(=O)NC7=O)c7ccccc76)CC5)nn4)c3C2=O)C(=O)N1` (stereo not drawn), the DC50 (in general, the midpoint of the concentration-degradation curve) came out at 0.22 µM in series [1] and 0.33 µM in [9]. Further, the outcome in series [2] and in [3] was inactive. Besides, the 50% inhibitory concentration (IC50) (commonly the concentration needed to halve the response being measured) turned out to be 3.35 µM in series [4], 4.67 µM in series [7], 4.87 µM in [8] and 5.72 µM in series [10]. Further, the results for the Emax in [5] and in series [6] were 78% and 75%, respectively.

As for `CN(CCC(=O)N1CCC(NC(=O)c2c[nH]nc2NC(=O)c2c(Cl)cccc2Cl)CC1)C(=O)CNc1cccc2c1C(=O)N(C1CCC(=O)NC1=O)C2=O` (stereo not drawn), the DC50 is 0.152 µM in [1] and 0.045 µM in series [9]. The outcome in [2] and in series [3] was inactive. Further, the 50% inhibitory concentration (IC50) in series [4] worked out at 2.56 µM; in [7] it was 3.12 µM; in [8], 2.89 µM; in series [10], 2.34 µM. Further, the Emax (in general, the greatest response seen or fitted, relative to the assay's reference) in series [5] was determined as 90%; in [6], 78%. The Papp at 4 h, 500 µM in series [11] was 31.3 ×10⁻⁶ cm/s.

Regarding `OC[C@@H](O)[C@@H](O)[C@H](O)[C@H](O)CO` [MANNITOL], the Papp at 4 h, 500 µM in series [11] amounted to 4.08 ×10⁻⁶ cm/s.

Turning to `O=C1CCC(N2C(=O)c3cccc(NCC(=O)N4CCC(C(=O)N5CCN(CCCn6cc(C7=C(c8c[nH]c9ccccc89)C(=O)NC7=O)c7ccccc76)CC5)CC4)c3C2=O)C(=O)N1` (stereo not drawn), the DC50 came out at 0.125 µM in [1] and 0.321 µM in [9]. The result in series [2] and in series [3] was inactive. The IC50 in series [4] was 3.58 µM; in series [7] it was 3.01 µM; in series [8], 3.54 µM; in series [10] it was 2.81 µM. For the same compound, the maximum response (Emax) in series [5] is 78%; in [6], 81%.

As for `Cc1cc(=O)n(-c2ccccc2)n1C` [ANTIPYRINE], in series [11], the Papp at 4 h, 500 µM came to 15.2 ×10⁻⁶ cm/s.

Take `O=C1CCC(N2C(=O)c3cccc(NCCOCCOCCOCC(=O)N4CCN(CCCn5cc(C6=C(c7c[nH]c8ccccc78)C(=O)NC6=O)c6ccccc65)CC4)c3C2=O)C(=O)N1` (stereo not drawn): the half-maximal degradation concentration (DC50) is 0.096 µM in series [1] and 0.21 µM in series [9]. Moreover, the result in [2] and in series [3] was inactive. The 50% inhibitory concentration (IC50) in [4] was found to be 5.56 µM; in [7] it was 6.61 µM; in [8] it was 5.98 µM; in series [10], 5.15 µM. Also, the maximal effect (Emax) in [5] was determined as 81%; in series [6] it was 87%.

Take `O=C1CCC(N2C(=O)c3cccc(NCCOCCOCCOCC(=O)N4CCC(NC(=O)c5c[nH]nc5NC(=O)c5c(Cl)cccc5Cl)CC4)c3C2=O)C(=O)N1` (stereo not drawn): the half-maximal degradation concentration (DC50) in series [1] was found to be 0.09 µM; in series [9], 0.036 µM. Moreover, the outcome in [2] and in series [3] was inactive. The IC50 stood at 3.57 µM in series [4], 3.81 µM in series [7], 3.14 µM in series [8] and 2.75 µM in series [10]. Also, the values for the maximal effect (Emax) in series [5] and in [6] were 92% and 89%, respectively. Further, the Papp at 4 h, 500 µM in series [11] was found to be 61.2 ×10⁻⁶ cm/s.

Turning to `O=C1Cc2c([nH]c3ccc(Br)cc23)-c2ccccc2N1` [KENPAULLONE], the IC50 in series [4] came to 6.5 µM; in [7], 7.2 µM; in series [8], 9.1 µM; in series [10] it was 8.6 µM.
